The target of assay [1] is T1, Cbl-b (Homo sapiens, UniProt Q13191).
T1 construct: Cbl-b-HiBit KI Jurkat Cells were purchased from Promega; host or cells: Cbl-b-HiBiT knock-in Jurkat cells
The assay can be described thus: Cbl-b Degradation Method A (FACS, anti-Cbl-b antibody staining). In kind it is cell-based. The note with it: Cbl-b-HiBit KI Jurkat Cells, incubated at least 20 hours; for DC50: half maximal degradation, read-out: Cbl-b Degredation Method A IC50; for Dmax: Jurkat, maximum degradation observed, read-out: Cbl-b Degredation Method A Dmax (%). The procedure, abridged:
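Readout is flow cytometry of fixed, permeabilized cells immunostained for Cbl-b (primary 1:200, AF488 secondary). Cells were Cbl-b-HiBit knock-in Jurkat, exposed to compound ≥20 h at 37 °C; half-maximal degradation concentration (DC50) and maximal degradation (Dmax) calculated relative to control.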
A general note: HiBiT is a short tag that completes a luciferase, so light tracks the accessible tagged protein.

Assay [2] deals with T1, Cbl-b. Briefly: Cbl-b Degradation Method B (Nano-Glo HiBiT lytic detection). In kind it is cell-based. The settings on record: Cbl-b-HiBit KI Jurkat Cells, incubated at least 6-24 hours; for DC50: half maximal degradation, read-out: Cbl-b Degredation Method B IC50; for Cbl-b Degredation Method B Dmax (%): maximum degradation observed. In a few lines: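 An 11-point, 3-fold compound dilution was applied for 6-24 hours to Jurkat cells carrying HiBiT-tagged endogenous Cbl-b. Lytic HiBiT luminescence quantified residual protein. Outputs are DC50 and Dmax relative to DMSO control.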

One may read the Dmax as the greatest extent of degradation seen.

Some results are limits rather than exact numbers.

T1 sequence (Q13191 whole entry): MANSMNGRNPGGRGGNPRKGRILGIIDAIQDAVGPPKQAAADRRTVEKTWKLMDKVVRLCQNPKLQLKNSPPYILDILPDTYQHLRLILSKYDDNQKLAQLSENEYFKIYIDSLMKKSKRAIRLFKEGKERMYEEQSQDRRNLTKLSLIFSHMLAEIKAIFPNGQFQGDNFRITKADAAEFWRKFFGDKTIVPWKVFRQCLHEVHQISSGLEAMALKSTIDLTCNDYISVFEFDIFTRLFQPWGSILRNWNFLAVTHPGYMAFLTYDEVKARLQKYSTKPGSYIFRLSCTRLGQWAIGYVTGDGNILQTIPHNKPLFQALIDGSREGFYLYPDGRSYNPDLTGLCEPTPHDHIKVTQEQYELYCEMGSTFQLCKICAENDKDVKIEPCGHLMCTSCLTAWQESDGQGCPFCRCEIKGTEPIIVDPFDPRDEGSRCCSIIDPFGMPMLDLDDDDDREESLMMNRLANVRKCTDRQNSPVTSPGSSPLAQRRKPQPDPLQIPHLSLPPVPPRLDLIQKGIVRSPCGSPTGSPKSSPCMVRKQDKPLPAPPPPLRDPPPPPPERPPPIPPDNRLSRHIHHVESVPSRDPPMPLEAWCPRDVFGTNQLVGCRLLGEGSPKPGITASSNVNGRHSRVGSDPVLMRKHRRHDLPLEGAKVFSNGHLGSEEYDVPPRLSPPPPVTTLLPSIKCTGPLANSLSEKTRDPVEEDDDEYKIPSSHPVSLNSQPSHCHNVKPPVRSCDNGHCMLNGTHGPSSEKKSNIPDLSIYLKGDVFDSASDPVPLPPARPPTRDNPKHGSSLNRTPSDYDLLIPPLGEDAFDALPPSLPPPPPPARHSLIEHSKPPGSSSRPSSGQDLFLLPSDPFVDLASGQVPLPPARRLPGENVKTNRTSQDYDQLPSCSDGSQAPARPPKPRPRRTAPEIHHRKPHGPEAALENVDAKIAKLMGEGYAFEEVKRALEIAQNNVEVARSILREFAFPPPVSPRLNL

Consider `CC(C)n1c(=O)n(C2CCC(=O)NC2=O)c2cccc(N3CCC(O[C@H]4CC[C@H](CN5CCC6(CC5)CN(Cc5cc7c(c(C(F)(F)F)c5)CN(c5cccc([C@]8(Cc9nncn9C)C[C@@H](C#N)C8)c5)C7=O)C6)CC4)CC3)c21` (some centres unmarked) [Example 320, (1r,3r)-3-[(4-methyl-4H-1,2,4-triazol-3-yl)methyl]-3-(3-{1-oxo-6-[(7-{[(1r,4r)-4-({1-[1-(2,6-dioxopiperidin-3-yl)-2-oxo-3-(propan-2-yl)-2,3-dihydro-1H-1,3-benzodiazol-4-yl]piperidin-4-yl}oxy)cyclohexyl]methyl}-2,7-diazaspiro[3.5]nonan-2-yl)methyl]-4-(trifluoromethyl)-2,3-dihydro-1H-isoindol-2-yl}phenyl)cyclobutane-1-carbonitrile], for which, on Cbl-b [1], the DC50 fell in the range of 50 to 500 nM and the Dmax is more than 70%. Besides, at Cbl-b [2], the DC50 is less than 5 nM and the “Cbl-b Degredation Method B Dmax (%)” value is “C (C ≤ 35)”.

With `CC(C)n1c(=O)n(C2CCC(=O)NC2=O)c2cccc(N3CCC(O[C@H]4CC[C@H](CN5CC6(CCN(Cc7cc8c(c(C(F)(F)F)c7)CN(c7cccc([C@]9(Cc%10nncn%10C)C[C@@H](C#N)C9)c7)C8=O)CC6)C5)CC4)CC3)c21` (some centres unmarked) [Example 321, (1r,3r)-3-[(4-methyl-4H-1,2,4-triazol-3-yl)methyl]-3-(3-{1-oxo-6-[(2-{[(1r,4r)-4-({1-[1-(2,6-dioxopiperidin-3-yl)-2-oxo-3-(propan-2-yl)-2,3-dihydro-1H-1,3-benzodiazol-4-yl]piperidin-4-yl}oxy)cyclohexyl]methyl}-2,7-diazaspiro[3.5]nonan-7-yl)methyl]-4-(trifluoromethyl)-2,3-dihydro-1H-isoindol-2-yl}phenyl)cyclobutane-1-carbonitrile], at Cbl-b [1], the DC50 is 5 to 50 nM and the Dmax was less than 35%. For the same compound, at Cbl-b [2], the DC50 was less than 5 nM and the “Cbl-b Degredation Method B Dmax (%)” value is “C (C ≤ 35)”.

In the case of `CC(C)n1c(=O)n(C2CCC(=O)NC2=O)c2cccc(N3CCC(O[C@H]4CC[C@H](CN5CCN(Cc6cc7c(c(C(F)(F)F)c6)CN(c6cccc([C@]8(Cc9nncn9C)C[C@@H](C#N)C8)c6)C7=O)C6(COC6)C5)CC4)CC3)c21` (some centres unmarked) [Example 322, (1r,3r)-3-[(4-methyl-4H-1,2,4-triazol-3-yl)methyl]-3-(3-{1-oxo-6-[(8-{[(1r,4r)-4-({1-[1-(2,6-dioxopiperidin-3-yl)-2-oxo-3-(propan-2-yl)-2,3-dihydro-1H-1,3-benzodiazol-4-yl]piperidin-4-yl}oxy)cyclohexyl]methyl}-2-oxa-5,8-diazaspiro[3.5]nonan-5-yl)methyl]-4-(trifluoromethyl)-2,3-dihydro-1H-isoindol-2-yl}phenyl)cyclobutane-1-carbonitrile], on Cbl-b [1], the DC50 is 50 to 500 nM and the Dmax was more than 70%. Also, at Cbl-b [2], the DC50 lay in the range of 5 to 50 nM and the “Cbl-b Degredation Method B Dmax (%)” value is reported as “C (C ≤ 35)”.

For `CC(C)n1c(=O)n(C2CCC(=O)NC2=O)c2cccc(N3CCC(O[C@H]4CC[C@H](CN5CCN(Cc6cc7c(c(C(F)(F)F)c6)CN(c6cccc([C@]8(Cc9nncn9C)C[C@@H](C#N)C8)c6)C7=O)CC[C@H]5C)CC4)CC3)c21` (stereo partly drawn) [Example 323, (1r,3r)-3-[3-(6-{[(5R)-5-methyl-4-{[(1r,4r)-4-({1-[1-(2,6-dioxopiperidin-3-yl)-2-oxo-3-(propan-2-yl)-2,3-dihydro-1H-1,3-benzodiazol-4-yl]piperidin-4-yl}oxy)cyclohexyl]methyl}-1,4-diazepan-1-yl]methyl}-1-oxo-4-(trifluoromethyl)-2,3-dihydro-1H-isoindol-2-yl)phenyl]-3-[(4-methyl-4H-1,2,4-triazol-3-yl)methyl]cyclobutane-1-carbonitrile], at Cbl-b [1], the DC50 was in the range of 5 to 50 nM and the Dmax was in the range of 35 to 70%. For the same compound, at Cbl-b [2], the DC50 is less than 5 nM and the “Cbl-b Degredation Method B Dmax (%)” value is “C (C ≤ 35)”.

On to `Cn1cnnc1C[C@]1(c2cccc(N3Cc4c(cc(CN5CCN(C[C@H]6CC[C@H](OC7CCN(c8cccc9c8n(C(F)F)c(=O)n9C8CCC(=O)NC8=O)CC7)CC6)CC5(C)C)cc4C(F)(F)F)C3=O)c2)C[C@H](C#N)C1` (some centres unmarked) [Example 324, (1r,3r)-3-(3-{6-[(2,2-dimethyl-4-{[(1r,4r)-4-({1-[3-(difluoromethyl)-1-(2,6-dioxopiperidin-3-yl)-2-oxo-2,3-dihydro-1H-1,3-benzodiazol-4-yl]piperidin-4-yl}oxy)cyclohexyl]methyl}piperazin-1-yl)methyl]-1-oxo-4-(trifluoromethyl)-2,3-dihydro-1H-isoindol-2-yl}phenyl)-3-[(4-methyl-4H-1,2,4-triazol-3-yl)methyl]cyclobutane-1-carbonitrile], for which, at Cbl-b [1], the DC50 fell in the range of 5 to 50 nM and the Dmax is 35 to 70%. In addition, at Cbl-b [2], the DC50 is less than 5 nM and the “Cbl-b Degredation Method B Dmax (%)” value was “C (C ≤ 35)”.

Regarding `Cn1cnnc1C[C@]1(c2cccc(N3Cc4c(cc(CN5CCN(C[C@H]6CC[C@H](OC7CCN(c8cccc9c8nc(OC(F)F)n9C8CCC(=O)NC8=O)CC7)CC6)CC5(C)C)cc4C(F)(F)F)C3=O)c2)C[C@H](C#N)C1` (some centres unmarked) [Example 325, (1r,3r)-3-(3-{6-[(2,2-dimethyl-4-{[(1r,4r)-4-({1-[2-(difluoromethoxy)-1-(2,6-dioxopiperidin-3-yl)-1H-1,3-benzodiazol-4-yl]piperidin-4-yl}oxy)cyclohexyl]methyl}piperazin-1-yl)methyl]-1-oxo-4-(trifluoromethyl)-2,3-dihydro-1H-isoindol-2-yl}phenyl)-3-[(4-methyl-4H-1,2,4-triazol-3-yl)methyl]cyclobutane-1-carbonitrile], at Cbl-b [1], the DC50 fell in the range of 50 to 500 nM and the Dmax is 35 to 70%. Further, on Cbl-b [2], the DC50 was 5 to 50 nM and the “Cbl-b Degredation Method B Dmax (%)” value is listed as “C (C ≤ 35)”.

In the case of `CC(C)n1c(=O)n(C2CCC(=O)NC2=O)c2cccc(N3CCC(O[C@H]4CC[C@H](CN5CCN(Cc6cc7c(c(C(F)(F)F)c6)CN(c6cccc([C@]8(Cc9nncn9C)C[C@H](C#N)C8)c6)C7=O)CC[C@@H]5C)CC4)CC3)c21` (stereo partly drawn) [Example 326, (1r,3r)-3-[3-(6-{[(5S)-5-methyl-4-{[(1r,4r)-4-({1-[1-(2,6-dioxopiperidin-3-yl)-2-oxo-3-(propan-2-yl)-2,3-dihydro-1H-1,3-benzodiazol-4-yl]piperidin-4-yl}oxy)cyclohexyl]methyl}-1,4-diazepan-1-yl]methyl}-1-oxo-4-(trifluoromethyl)-2,3-dihydro-1H-isoindol-2-yl)phenyl]-3-[(4-methyl-4H-1,2,4-triazol-3-yl)methyl]cyclobutane-1-carbonitrile], at Cbl-b [1], the DC50 lay in the range of 50 to 500 nM and the Dmax lay within 35 to 70%. At Cbl-b [2], the DC50 is less than 5 nM and the “Cbl-b Degredation Method B Dmax (%)” value is on record as “C (C ≤ 35)”.

On to `CC(C)n1c(=O)n(C2CCC(=O)NC2=O)c2cccc(N3CCC(O[C@H]4CC[C@H](CN5CC6(CN(Cc7cc8c(c(C(F)(F)F)c7)CN(c7cccc([C@]9(Cc%10nncn%10C)C[C@@H](C#N)C9)c7)C8=O)C6)C5)CC4)CC3)c21` (some centres unmarked) [Example 327, (1r,3r)-3-[(4-methyl-4H-1,2,4-triazol-3-yl)methyl]-3-(3-{1-oxo-6-[(6-{[(1r,4r)-4-({1-[1-(2,6-dioxopiperidin-3-yl)-2-oxo-3-(propan-2-yl)-2,3-dihydro-1H-1,3-benzodiazol-4-yl]piperidin-4-yl}oxy)cyclohexyl]methyl}-2,6-diazaspiro[3.3]heptan-2-yl)methyl]-4-(trifluoromethyl)-2,3-dihydro-1H-isoindol-2-yl}phenyl)cyclobutane-1-carbonitrile], for which, at Cbl-b [1], the DC50 is 5 to 50 nM and the maximal degradation (Dmax) is 35 to 70%. Besides, at Cbl-b [2], the DC50 was less than 5 nM and the “Cbl-b Degredation Method B Dmax (%)” value is recorded as “C (C ≤ 35)”.

These data come from patent publication US20260184710A1, “CASITAS B-LINEAGE LYMPHOMA PROTOONCOGENE B (CBL-B) DEGRADING COMPOUNDS AND ASSOCIATED METHODS OF USE” (Arvinas Operations, Inc., priority 2022, published 2026).
